Numbered stars: 1 amine (or outer) side, 2 acyl side, 3 side chain; on linkers, the order of the positions; unused ones are H or OH. Square brackets hold non-standard residues; d marks the D form. Peptide text beside a SMILES is read from it. Phe(4-NO2) = N[C@@H](Cc1ccc([N+](=O)[O-])cc1)C(=O)O; Tyr(3,5-I2) = N[C@@H](Cc1cc(I)c(O)c(I)c1)C(=O)O; X3 = N#[N+]c1ccc(C[C@@H](N[*:1])C(=O)[*:2])cc1; X2 = Nc1c(I)cc(C[C@@H](N[*:1])C(=O)[*:2])cc1I; X4 = Cc1cc(C[C@@H](N[*:1])C(=O)[*:2])cc(C)c1O; X1 = Cc1cc(C[C@H](N[*:1])C(=O)[*:2])cc(C)c1O; Tyr(3-I) = N[C@@H](Cc1ccc(O)c(I)c1)C(=O)O; Phe(4-NH2) = Nc1ccc(C[C@H](N)C(=O)O)cc1; Sar = CNCC(=O)O

The species entered for the first assay is Rattus norvegicus. Kind of assay: Pressor activity in nephrectomized, pentolinium treated rat relative to [Asn1,Val5]AII. In kind it is functional.
`CC[C@H](C)[C@H](NC(=O)[C@H](Cc1ccccc1)NC(=O)[C@@H](NC(=O)[C@H](CCCNC(=N)N)NC(=O)[C@@H](N)CC(=O)O)C(C)C)C(=O)N[C@@H](Cc1cnc[nH]1)C(=O)N1CCC[C@H]1C(=O)N[C@@H](Cc1ccccc1)C(=O)O` (H-DRVFIHPF-OH): the Activity came out at 10%.
On the same count and under the same terms, the figure for `CC[C@H](C)[C@H](NC(=O)[C@H](Cc1ccc(N)cc1)NC(=O)[C@@H](NC(=O)[C@H](CCCNC(=N)N)NC(=O)[C@@H](N)CC(N)=O)C(C)C)C(=O)N[C@@H](Cc1cnc[nH]1)C(=O)N1CCC[C@H]1C(=O)N[C@@H](Cc1ccccc1)C(=O)O` (H-NRV[Phe(4-NH2)]IHPF-OH) is 24%; for `CC[C@H](C)[C@H](NC(=O)[C@H](Cc1ccc([N+](=O)[O-])cc1)NC(=O)[C@@H](NC(=O)[C@H](CCCNC(=N)N)NC(=O)[C@@H](N)CC(N)=O)C(C)C)C(=O)N[C@@H](Cc1cnc[nH]1)C(=O)N1CCC[C@H]1C(=O)N[C@@H](Cc1ccccc1)C(=O)O` (H-NRV[Phe(4-NO2)]IHPF-OH) it is 0.1%.
On the same count and under the same terms, the figure for `CC(C)[C@H](NC(=O)[C@H](CCCNC(=N)N)NC(=O)[C@@H](N)CC(N)=O)C(=O)N[C@@H](Cc1cc(I)c(O)c(I)c1)C(=O)N[C@H](C(=O)N[C@@H](Cc1cnc[nH]1)C(=O)N1CCC[C@H]1C(=O)N[C@@H](Cc1ccccc1)C(=O)O)C(C)C` (H-NRV[Tyr(3,5-I2)]VHPF-OH) is 13%.
`CC(C)[C@H](NC(=O)[C@H](CCCNC(=N)N)NC(=O)[C@@H](N)CC(N)=O)C(=O)N[C@@H](Cc1ccc(O)c(I)c1)C(=O)N[C@H](C(=O)N[C@@H](Cc1cnc[nH]1)C(=O)N1CCC[C@H]1C(=O)N[C@@H](Cc1ccccc1)C(=O)O)C(C)C` (H-NRV[Tyr(3-I)]VHPF-OH) gave an Activity of 33%.
On the same count and under the same terms, the figure for `CC[C@H](C)[C@H](NC(=O)[C@H](Cc1cc(C)c(O)c(C)c1)NC(=O)[C@@H](NC(=O)[C@H](CCCNC(=N)N)NC(=O)[C@@H](N)CC(N)=O)C(C)C)C(=O)N[C@@H](Cc1cnc[nH]1)C(=O)N1CCC[C@H]1C(=O)N[C@@H](Cc1ccccc1)C(=O)O` (H-NRV[X1]IHPF-OH) is 2.2%; for `CC[C@H](C)[C@H](NC(=O)[C@@H](Cc1cc(C)c(O)c(C)c1)NC(=O)[C@@H](NC(=O)[C@H](CCCNC(=N)N)NC(=O)[C@@H](N)CC(N)=O)C(C)C)C(=O)N[C@@H](Cc1cnc[nH]1)C(=O)N1CCC[C@H]1C(=O)N[C@@H](Cc1ccccc1)C(=O)O` (H-NRV[X4]IHPF-OH) it is 1.4%.

Another assay addresses T1, Type-1 angiotensin II receptor (Oryctolagus cuniculus) (UniProt P34976).
T1 sequence (whole entry): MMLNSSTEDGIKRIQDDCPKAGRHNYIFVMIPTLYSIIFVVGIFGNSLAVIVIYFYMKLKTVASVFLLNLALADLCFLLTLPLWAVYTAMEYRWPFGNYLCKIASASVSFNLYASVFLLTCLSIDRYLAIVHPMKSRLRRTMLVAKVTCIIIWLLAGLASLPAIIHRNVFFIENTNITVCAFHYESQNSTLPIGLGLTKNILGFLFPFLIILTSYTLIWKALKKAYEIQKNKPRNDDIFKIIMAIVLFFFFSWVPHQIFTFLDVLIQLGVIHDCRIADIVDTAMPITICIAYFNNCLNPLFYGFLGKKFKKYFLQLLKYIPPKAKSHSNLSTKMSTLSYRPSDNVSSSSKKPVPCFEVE
Description: Binding affinity to angiotensin 2 receptor in rabbit aorta.
Consider `CNCC(=O)N[C@@H](CCCNC(=N)N)C(=O)N[C@H](C(=O)N[C@H](Cc1ccc(N)cc1)C(=O)N[C@H](C(=O)N[C@@H](Cc1cnc[nH]1)C(=O)N1CCC[C@H]1C(=O)N[C@@H](Cc1ccccc1)C(=O)O)C(C)C)C(C)C`, for which the Activity stood at 15%.
The same measure, in the same setting: the result for `CNCC(=O)N[C@@H](CCCNC(=N)N)C(=O)N[C@H](C(=O)N[C@H](Cc1ccc(N=[N+]=[N-])cc1)C(=O)N[C@H](C(=O)N[C@@H](Cc1cnc[nH]1)C(=O)N1CCC[C@H]1C(=O)N[C@@H](Cc1ccccc1)C(=O)O)C(C)C)C(C)C` reads 0.26%; that for `CNCC(=O)N[C@@H](CCCNC(=N)N)C(=O)N[C@H](C(=O)N[C@H](Cc1cc(I)c(N)c(I)c1)C(=O)N[C@H](C(=O)N[C@@H](Cc1cnc[nH]1)C(=O)N1CCC[C@H]1C(=O)N[C@@H](Cc1ccccc1)C(=O)O)C(C)C)C(C)C` (H-[Sar]RV[X2]VHPF-OH), 2.7%; that for `CNCC(=O)N[C@@H](CCCNC(=N)N)C(=O)N[C@H](C(=O)N[C@H](Cc1ccc([N+]#N)cc1)C(=O)N[C@H](C(=O)N[C@@H](Cc1cnc[nH]1)C(=O)N1CCC[C@H]1C(=O)N[C@@H](Cc1ccccc1)C(=O)O)C(C)C)C(C)C` (H-[Sar]RV[X3]VHPF-OH), 0.66%.

(Values after ChEMBL document CHEMBL3244098, “Angiotensin II analogues. 13. Role of the hydroxyl group of position 4 tyrosine in pressor activity” (1979).)
